# Source: patent US20250002492A1, “COMPOSITIONS OF FOLATE ABSORPTION INHIBITORS AND METHODS THEREOF” (THE TEXAS A&M UNIVERSITY SYSTEM, priority 2023, published 2025)
# System: C. elegans strain N2
# Test: Lifespan assay in worms
# Assay type: in vivo
# Source text: The ability of pharmacological or other interventions to extend the lifespan of different organisms is often conserved. For the instant example, the disclosed compounds can be tested for their ability to extend the lifespan of the worm model system Caenorhabditis elegans (N2 strain) [see, e.g., PMID: 19488025]. The organisms can be first exposed to the compounds as adults, 2-3 days after the egg stage until their death, on solid media containing the compounds at the desired concentration. The temperature can be kept constant at 20° C. throughout the assays. The bacteria used as food for the worms (Escherichia coli strain OP-50) can be dead (e.g., killed by lethal doses of ultraviolet radiation) to ensure that any effects on lifespan are not indirect, mediated through bacterial metabolism.
# The assays were performed at 20° C. using C. elegans strain N2 and a bacterial strain (OP50) commonly used as food for the worms. Briefly, the assays were performed on solid agar nematode growth media (NGM) plates prepared fresh before each experiment. The bacterial lawn was exposed twice to a UV dose of 120 mJ/cm^2 using a UVC-515 Ultraviolet Multilinker (Ultra-Lum, Inc.). Streaking these UV-exposed bacteria to fresh LB agar plates (1% w/v tryptone, 0.5% w/v yeast extract, 1% w/v sodium chloride) produced no visible colonies. Methotrexate, or the ATIC inhibitor, was first dissolved in DMSO and then added to the media used to prepare the plates after autoclaving (the media were kept in a 50° C. water bath until the plates were poured). Mock-treated control plates contained only DMSO. At the start of each experiment, a sufficient number of eggs were collected from plates without any drugs and then placed on plates containing the indicated doses of each compound tested. After hatching and progression to the adult stage, animals were transferred to new plates (marked as the start of the lifespan assay) containing the drug tested and fluorodeoxyuridine (FUDR; dissolved in water), added at 50 μM to block hatching of new animals. The plates were scored at least every other day until all the worms died. If an animal responded to gentle touch, it was scored as alive, otherwise a death was recorded, and the animal was removed from the plate. Worms were transferred to fresh plates as needed (e.g., if there was evidence of microbial contamination, dryness/cracks on the agar surface, consumption of the bacterial lawn, or hatching of new animals that escaped the FUDR block). The reported lifespans were compiled from several independent experiments done over several months (9-10 months for the methotrexate experiments and 4-5 months for the ATIC inhibitor), each scored by multiple individuals (4-5 persons per experiment). No experiments were excluded from the analysis.
smiles,measurement,setting,value
"CC(=O)N1CCC(C(=O)N2CCN3C(=O)c4cc(-c5ccccc5)ccc4NC(=O)C3C2)CC1 (stereo not drawn) [MPOL_B_1, 2-(1-acetylpiperidine-4-carbonyl)-8-phenyl-1,3,4,12a-tetrahydrobenzo[e]pyrazino[1,2-a][1,4]diazepine-6,12(2H,11H)-dione]",lifespan effect relative to the effect of methotrexate,same worm assay,2-3 times
same,extension of maximal lifespan,"worms, 50 and 100 μM",~30%
same,extension of mean lifespan,"worms, 50 and 100 μM",~30%
